Source: publication PMC7142784, “Antimalarial Peptide and Polyketide Natural Products from the Fijian Marine Cyanobacterium Moorea producens” (Marine Drugs, 2020)
Where two headings read alike, the source gives them in different places.

Columns and labels:
HEK293T cells = experiment: HEK293T cytotoxicity; conditions: for HEK293T Cytotoxicity, half-maximal cytotoxicity concentration: HEK293T cells
Method: A previously described method was utilized to evaluate cytotoxicity against HepG2 and HEK293T cells as a measure of general human toxicity. Assay data generated for Plasmodium was analyzed with a Genedata Screener (v13.0-Standard). Inhibitors (puromycin for cytotoxicity and atovaquone for liver-stage parasites) were subtracted from neutral controls to normalize data. The Smart Fit function of the Genedata Analyzer generated dose-response curves that were used to calculate the half-maximal effective concentrations (EC50).

[1] = tested on: liver-stage P. berghei (Pb-Luc sporozoites in HepG2 cells); experiment: microbe, parasite or virus in culture; type: cell-based, Plasmodium berghei; conditions: read-out: Liver-Stage P. berghei half-maximal effective concentration (EC50)
Method: Activity against liver-stage P. berghei was quantified for extracts, fractions, and pure compounds using a slightly modified 48 h luminescence-based assay. The salivary gland of infected Anopheles stephensi was dissected to harvest P. berghei-ANKA-GFP-LucSMCON (Pb-Luc) sporozoites (originally received from Dr. Ana Rodriguez of NYU School of Medicine; last round of testing to evaluate pure 1, 3–5 used infected mosquitoes from Elizabeth Winzeler at UCSD and Dennis Kyle at UGA) which were filtered through a 20 μm nylon net filter twice (Steriflip, Millipore, MA), counted with a hemocytometer, and adjusted to achieve a final concentration of 200 sporozoites/1 μL in the assay media (DMEM without Phenol Red (Life Technologies, CA), 5% FBS, and 5 × Pen−Strep and glutamine (Life Technologies, CA)). A Multi-Flo (BioTek, VT) with a 1 μL cassette was used to transfer purified sporozoites, 1 × 10^3 sporozoites per well (5 μL), to assay plates containing HepG2 cells. After incubation at 37 °C for 48 h, a bioluminescence measurement was taken to assess the liver-stage growth. More specifically, media was removed by inverting the plates, and spinning them at 150 × g for 30 s, and 2 μL per well of BrightGlo (Promega, WI) was added for quantification of Pb-Luc viability. The luminescence was measured immediately after addition of the luminescence reagent using an Envision Multilabel Reader (PerkinElmer, MA).

HepG2 cells = experiment: HepG2 cytotoxicity; type: cell-based, human; conditions: for HepG2 Cytotoxicity, half-maximal cytotoxicity concentration: HepG2 cells
Method: A previously described method was utilized to evaluate cytotoxicity against HepG2 and HEK293T cells as a measure of general human toxicity [52]. Assay data generated for Plasmodium was analyzed with a Genedata Screener (v13.0-Standard). Inhibitors (puromycin for cytotoxicity and atovaquone for liver-stage parasites) were subtracted from neutral controls to normalize data. The Smart Fit function of the Genedata Analyzer generated dose-response curves that were used to calculate the half-maximal effective concentrations (EC50).

[2] = tested on: asexual blood-stage P. falciparum strain Dd2L; experiment: asexual blood-stage P. falciparum assay with SYBR Green detection; type: cell-based, Plasmodium falciparum; conditions: for blood-stage antimalarial activity (in words): P. falciparum; for EC50: Plasmodium falciparum, 72 h
Method: A standard method for evaluating antimalarial activity with asexual blood-stage P. falciparum and SYBR Green detection was used to assess the potency of extracts, fractions, and compounds [50]. Screening media was prepared from complete media supplemented with 0.05% Albumax II (but without human serum). Dr. David Fidock of Columbia University provided P. falciparum strain Dd2L, which was cultured with fresh O+ erythrocytes (TSRI Normal Blood Donation). Compounds were transferred to assay plates using a Labcyte ECHO acoustic liquid handler. Fresh and parasitized erythrocytes were prepared in screening media before inoculating plates (Multi-Flo; BioTek, VT) with a final hematocrit of 2.5% and a final parasitemia of 0.3%. The assay plates were incubated for 72 h in a chamber at 37 °C with a low oxygen gas formulation with daily gas exchanges. After incubation, a Multi-Flo liquid dispenser transferred SYBR Green lysis buffer to the wells, and the plates were incubated for another 24 h at room temperature to achieve optimal development of fluorescence signal, which was read by an Envision Multimode Reader (PerkinElmer, MA).

rabbit muscle actin = biological target: T1, rabbit muscle actin (Oryctolagus cuniculus, UniProt P68135); experiment: actin polymerization assay (pyrene-labeled rabbit muscle actin); type: biochemical
T1 construct: purchased Abcam ab239724
Text: Of the proteins predicted to bind to kakeromamide (1), actin and sortilin were deemed worthy of further evaluation given their higher predicted binding values. However, no in vitro sortilin assay is available. In contrast, actin polymerization assays are frequently employed to assess agents that affect actin dynamics, albeit using mammalian homologs of actin. Since 1 was predicted to bind to both Plasmodium and mammalian actin proteins but only mammalian actin assays are commercially available, an actin polymerization assay that uses pyrene-labeled rabbit muscle actin was employed. Several natural products are known to disrupt actin’s function by either inhibiting or stabilizing polymerization, which could arise from ligand binding. Since apicomplexan actins (including those of Plasmodium) and mammalian actins are relatively divergent, Plasmodium actin might be a useful molecular target. […] Similar activity by 1 could be one possible explanation for the observed increase in actin polymerization with increasing concentrations of 1. Although 1 appears to impact mammalian actin polymerization, future tests evaluating the impact of 1 on Plasmodium actin function would be worthwhile in order to further elucidate whether interactions with actin are relevant to this natural product’s mechanism of action on the malaria parasite.
The computationally predicted binding of 1 to actin was experimentally evaluated using a rabbit muscle actin polymerization assay kit from Abcam (kit ab239724) using the manufacturer’s protocol. Mean signal for n = 3 (actin polymerization control, solvent control, and background) or n = 2 (four different concentrations of latrunculin A and kakeromamide B) replicates was acquired for time points taken every 30 s for 1 h on a Synergy H4 plate reader. The results were plotted in GraphPad Prism 8 with an exponential plateau curve.

[3] = Plasmodium berghei, HepG2, 48 h, sporozoites from University of California San Diego (UCSD), 48 h
[4] = Plasmodium berghei, HepG2, 48 h, sporozoites from the University of Georgia (UGA), 48 h
[5] = read-out: Blood-Stage P. falciparum half-maximal effective concentration (EC50), asexual blood-stage, strain Dd2L, 72 h, SYBR Green
[6] = Plasmodium berghei, HepG2, 48 h

| Structure (SMILES) | HEK293T Cytotoxicity, half-maximal cytotoxicity concentration (HEK293T cells) [µM] | EC50 [1, 3] [µM] | EC50 [1, 4] [µM] | HepG2 Cytotoxicity, half-maximal cytotoxicity concentration (HepG2 cells) [µM] | blood-stage antimalarial activity (in words) [2] | EC50 [2, 5] [µM] | also measured |
| --- | --- | --- | --- | --- | --- | --- | --- |
| O=C1C(O)=C([C@H]2CC[C@H](c3ccc(Cl)cc3)CC2)C(=O)c2ccccc21 [Atovaquone, reference compound] | >2.0 | 0.0037 | 0.0017 | – | – | – | EC50 ([1]; Plasmodium berghei, HepG2, 48 h, sporozoites sourced from New York University (NYU) School of Medicine, 48 h): < 0.00028 µM |
| CCCCCC1NC(=O)c2csc(n2)C(C)NC(=O)C(Cc2ccc(OC)cc2)N(C)C(=O)C(Cc2ccc(OC)cc2)N(C)C(=O)C(C(C)C)NC(=O)C1C (stereo not shown) [Compound 1, kakeromamide B] | >23 | > 12 | 11 | >23 | only moderately active | 8.9 | cytotoxicity against HepG2 / human liver cells (in words) (HepG2 cells; HepG2 human cell line): did not exhibit toxicity; effect on mammalian actin polymerization (in words) (rabbit muscle actin; dose dependence): stimulated actin polymerization in a dose-dependent manner; effect on actin polymerization relative to controls (rabbit muscle actin; highest tested concentration, 25 µM, Figure S23): enhancing actin polymerization; effect on actin polymerization relative to controls (rabbit muscle actin; lowest tested concentration, 0.025 µM, Figure S23): moderately suppressed polymerization; cytotoxicity against HEK293T (in words) (HEK293T cells; HEK293T human cell line): did not exhibit toxicity |
| CCC[C@H]1NC(=O)c2csc(n2)[C@H](C)NC(=O)[C@H](C(C)C)N(C)C(=O)[C@H](Cc2ccccc2)N(C)C(=O)[C@H](C)OC(=O)[C@@H]1C [Compound 2, ulongamide A] | >4.8 | – | – | – | – | – | EC50 ([2]; read-out: Blood-Stage P. falciparum half-maximal effective concentration (EC50)): 0.99 µM; EC50 [1, 6]: > 4 µM |
| CC[C@H](C)[C@@H]1NC(=O)CNC(=O)c2csc(n2)[C@H](C(C)(C)O)OC(=O)C(C)(C)[C@H](CCCC(C)(Cl)Cl)OC(=O)c2csc1n2 [Compound 3, lyngbyabellin A] | 19 | – | – | 3.3 | – | 0.0015 | selectivity index for Plasmodium versus HepG2 (HepG2 cells; blood-stage P. falciparum versus human liver carcinoma cells (HepG2)): 2,200; selectivity index for Plasmodium versus HEK293T (HEK293T cells; blood-stage P. falciparum versus normal kidney epithelial cells (HEK293T)): 13,000; EC50 [1, 6]: > 10 µM; EC50 ([1]; sporozoites from University of California San Diego (UCSD), 48 h): > 10 µM |
| CO[C@@H]1[C@@H](OC)[C@H](C)O[C@@H](O[C@@H]2C[C@@H]3CC[C@H](C)[C@@H](O)C[C@](C)(CC/C=C/C=C/Br)OC(=O)C[C@](O)(C2)O3)[C@@H]1OC [Compound 4, 18E-lyngbyaloside C] | >31 | > 16 | 7.1 | 17 | inactive | > 19 | – |
| CO[C@@H]1[C@@H](OC)[C@H](C)O[C@@H](O[C@@H]2C[C@H]3O[C@@](O)(C2)[C@H](C)C(=O)O[C@@H](/C=C/C=C/Br)C[C@@H](C)/C=C\C[C@H](O)[C@@H]3C)[C@@H]1OC [Compound 5, lyngbyaloside] | >13 | > 6.3 | 4.5 | >13 | inactive | > 7.9 | – |
| CC1(C)c2nc(-c3ccc(F)cc3)c(Nc3ccc(F)cc3)n2CCN1C(=O)CN [ganaplacide, reference compound] | – | – | – | – | – | 0.0059 | – |
| C/C1=C/C(=O)O[C@@H]2C[C@@H](CC[C@H](C)/C=C\C=C\CC1)O[C@@](O)([C@@H]1CSC(=O)N1)C2 [latrunculin A, reference compound] | – | – | – | – | – | – | concentrations at which actin polymerization was suppressed (rabbit muscle actin; Figure S23): above 1.2 µM |
| OC(c1cc(C(F)(F)F)nc2c(C(F)(F)F)cccc12)C1CCCCN1 (stereo not shown) [mefloquine, reference compound] | – | – | – | – | – | 0.0029 | – |
